Laboratory results as given in patent publication US20050260164A1, “Gene regulation with aptamer and modulator complexes for gene therapy” (priority 2002, published 2005).

Experiments:
GDNF = GDNF expression in brain of MPTP-ablated monkeys (immunohistochemistry, ELISA); format: in vivo, rhesus
Experimental: After euthanasia, all monkeys are perfused with saline. The brain is removed, immersed in ice-cold saline for 10 min, and sliced on a monkey brain slicer. Slabs through the head of the caudate and putamen are punched bilaterally with a 1 mm brain punch. These punches are processed for HPLC for determination of catecholamine content. Brain punches are also homogenized in 150:1 buffer I [0.1M tris-buffered saline, pH 8.1, containing 1 mM EDTA, 1% aprotinin, 10 mg/ml leupeptin, 14 mg/ml pepstatin, 4 mM phenylmethylsulfonyl fluoride (PMSF)] for 30 sec in the ice slurry. An equal amount of buffer II (0.1 M tris-buffered saline, pH 8.1, containing 1 mM EDTA, 1% aprotinin, 10 g/ml leupeptin, 14 μg/ml pepstatin, 4 mM PMSF, and 0.5% NP-40) is then added. The tubes are shaken for 2 hours. The supernatant is collected for ELISA and protein measurements. The ELISA reaction was completed in 96-well plate (Dynatech, Chantilly, Va.) according to the ELISA manufacturer's instructions (GDNF Emax ImmunoAssay Systems Kit G3520, Promega, Madison, Wis.). The optical densities are recorded in ELISA plate reader (at 450 nm wave length; Dynatech). […] The concentrations of GDNF are calculated against six-point standard curve and then adjusted to picograms of GDNF per milligram of total protein. The total protein in each tissue lysate is measured using Bio-Rad protein assay kit (Bio-Rad, Richmond, Calif.). […]

MPTP-ablated monkeys = test: Parkinsonian clinical rating scale (CRS) in MPTP-ablated monkeys; format: in vivo, rhesus; details: diflucan continuously 3-12 mg/kg x day in animal previously treated with Lenti-GDNF
Experimental: Twenty young adult rhesus are initially trained 3 days per week until asymptotic performance is achieved on a hand-reach task in which the time to pick up food treats out of recessed wells is measured (M. E. Emborg, et al., J. Comp. Neurol. 401, 253 (1998); J. H. Kordower, Cell Transplant. 4, 155 (1995)). Each experimental day, monkeys receive 10 trials per hand. Once per week, monkeys are also evaluated on a modified parkinsonian clinical rating scale (CRS) to obtain a measurement of baseline performance. All monkeys then receive an injection of 3 mg MPTP-HCl into the right carotid artery, initiating a Parkinsonian state. One week later, monkeys are evaluated on the CRS. Only monkeys displaying severe hemi-Parkinsonism with the classic crooked arm posture and dragging leg on the left side continue in the study.
On the basis of CRS scores, monkeys are matched into three groups of five monkeys, which receive on that day: lentiviral vector expressing-b-galactosidase (Lenti-βgal) (group 1); Lenti-GDNF plus continuous treatment with diflucan (group 2); or Lenti-GDNF treatment alone (group 3). […]
One week following lentiviral vector treatment, monkeys begin retesting on the hand-reach task three times per week for 3 weeks per month. […] During the weeks of hand-reach testing, monkeys are also scored once per week on the CRS. […]

## OC(Cn1cncn1)(Cn1cncn1)c1ccc(F)cc1F [Diflucan, Fluconazole]
GDNF; diflucan continuously 3-12 mg/kg x day in animal previously treated with Lenti-GDNF
  GDNF expression: switched off
GDNF; diflucan treated animals compared to animals where diflucan is omitted
  levels of GDNF in the brains: no significant levels of GDNF
MPTP-ablated monkeys
  therapeutic effect in Parkinson's model monkeys: no therapeutic effect
